Experimental data from patent US8192962B2, “Processes for detecting toxic substances” (Daikin Industries, Ltd., priority 2001, dated 2012).

Tested on: Metabolism protein genes
Assay: DNA chip mRNA expression in yeast, metabolism protein genes (Table 7)
Type: cell-based, Saccharomyces cerevisiae S288C
Outline: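 Untreated cultures served as reference for log-phase S288C yeast given a growth-inhibiting, non-lethal toxicant dose for 2 h at 25° C. in YPD. Gene expression was measured on a whole-genome DNA chip from Cy3/Cy5-labeled cDNA.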

S=C([S-])NCCNC(=S)[S-].[Zn+2] [(11), zinc N,N′-ethylenebis(dithiocarbamate)]
The level of expressed mRNA in the presence of chemical substance/The level of expressed mRNA in the absence of chemical substance (yeast gene YJR155W): 15.4
The level of expressed mRNA in the presence of chemical substance/The level of expressed mRNA in the absence of chemical substance (yeast gene YKL035W): 2.1
level of expressed mRNA in the presence/in the absence of chemical substance (yeast gene YKL060C): 2.1
The level of expressed mRNA in the presence of chemical substance/The level of expressed mRNA in the absence of chemical substance (yeast gene YKL091C): 1.7
The level of expressed mRNA in the presence of chemical substance/The level of expressed mRNA in the absence of chemical substance (yeast gene YKL104C): 2.2
level of expressed mRNA in the presence/in the absence of chemical substance (yeast gene YKL148C): 1.5
The level of expressed mRNA in the presence of chemical substance/The level of expressed mRNA in the absence of chemical substance (yeast gene YKL152C): 1.7
level of expressed mRNA in the presence/in the absence of chemical substance (yeast gene YKL157W): 1.5
The level of expressed mRNA in the presence of chemical substance/The level of expressed mRNA in the absence of chemical substance (yeast gene YKL213C): 1.3
The level of expressed mRNA in the presence of chemical substance/The level of expressed mRNA in the absence of chemical substance (yeast gene YKL215C): 0.5
The level of expressed mRNA in the presence of chemical substance/The level of expressed mRNA in the absence of chemical substance (yeast gene YKR039W): 1.9
The level of expressed mRNA in the presence of chemical substance/The level of expressed mRNA in the absence of chemical substance (yeast gene YLL058W): 2.0
level of expressed mRNA in the presence/in the absence of chemical substance (yeast gene YLR006C): 1.5
level of expressed mRNA in the presence/in the absence of chemical substance (yeast gene YLR044C): 1.1
level of expressed mRNA in the presence/in the absence of chemical substance (yeast gene YLR056W): 0.8
level of expressed mRNA in the presence/in the absence of chemical substance (yeast gene YLR058C): 2.6
level of expressed mRNA in the presence/in the absence of chemical substance (yeast gene YLR081W): 2.6
level of expressed mRNA in the presence/in the absence of chemical substance (yeast gene YLR089C): 1.7
The level of expressed mRNA in the presence of chemical substance/The level of expressed mRNA in the absence of chemical substance (yeast gene YLR180W): 1.7
The level of expressed mRNA in the presence of chemical substance/The level of expressed mRNA in the absence of chemical substance (yeast gene YLR273C): 1.4
level of expressed mRNA in the presence/in the absence of chemical substance (yeast gene YLR284C): 1.5
The level of expressed mRNA in the presence of chemical substance/The level of expressed mRNA in the absence of chemical substance (yeast gene YLR299W): 1.7
The level of expressed mRNA in the presence of chemical substance/The level of expressed mRNA in the absence of chemical substance (yeast gene YLR300W): 1.0
level of expressed mRNA in the presence/in the absence of chemical substance (yeast gene YLR304C): 1.6
The level of expressed mRNA in the presence of chemical substance/The level of expressed mRNA in the absence of chemical substance (yeast gene YLR307W): 0.8
The level of expressed mRNA in the presence of chemical substance/The level of expressed mRNA in the absence of chemical substance (yeast gene YLR348C): 1.3
level of expressed mRNA in the presence/in the absence of chemical substance (yeast gene YLR354C): 1.7
level of expressed mRNA in the presence/in the absence of chemical substance (yeast gene YLR372W): 0.9
level of expressed mRNA in the presence/in the absence of chemical substance (yeast gene YML022W): 1.2
The level of expressed mRNA in the presence of chemical substance/The level of expressed mRNA in the absence of chemical substance (yeast gene YML054C): 1.4
The level of expressed mRNA in the presence of chemical substance/The level of expressed mRNA in the absence of chemical substance (yeast gene YML058W): 3.3
The level of expressed mRNA in the presence of chemical substance/The level of expressed mRNA in the absence of chemical substance (yeast gene YML070W): 1.5
The level of expressed mRNA in the presence of chemical substance/The level of expressed mRNA in the absence of chemical substance (yeast gene YML100W): 3.2
The level of expressed mRNA in the presence of chemical substance/The level of expressed mRNA in the absence of chemical substance (yeast gene YMR008C): 1.3
level of expressed mRNA in the presence/in the absence of chemical substance (yeast gene YMR011W): 1.5
level of expressed mRNA in the presence/in the absence of chemical substance (yeast gene YMR015C): 1.0
The level of expressed mRNA in the presence of chemical substance/The level of expressed mRNA in the absence of chemical substance (yeast gene YMR020W): 1.5
level of expressed mRNA in the presence/in the absence of chemical substance (yeast gene YMR083W): 1.6
The level of expressed mRNA in the presence of chemical substance/The level of expressed mRNA in the absence of chemical substance (yeast gene YMR105C): 3.0
The level of expressed mRNA in the presence of chemical substance/The level of expressed mRNA in the absence of chemical substance (yeast gene YMR189W): 8.2
level of expressed mRNA in the presence/in the absence of chemical substance (yeast gene YMR205C): 1.0
level of expressed mRNA in the presence/in the absence of chemical substance (yeast gene YMR261C): 0.8
The level of expressed mRNA in the presence of chemical substance/The level of expressed mRNA in the absence of chemical substance (yeast gene YMR271C): 1.7
The level of expressed mRNA in the presence of chemical substance/The level of expressed mRNA in the absence of chemical substance (yeast gene YMR296C): 0.8
level of expressed mRNA in the presence/in the absence of chemical substance (yeast gene YMR323W): 2.5
The level of expressed mRNA in the presence of chemical substance/The level of expressed mRNA in the absence of chemical substance (yeast gene YNL012W): 1.6
level of expressed mRNA in the presence/in the absence of chemical substance (yeast gene YNL025C): 1.1
The level of expressed mRNA in the presence of chemical substance/The level of expressed mRNA in the absence of chemical substance (yeast gene YNL045W): 2.1
The level of expressed mRNA in the presence of chemical substance/The level of expressed mRNA in the absence of chemical substance (yeast gene YNL104C): 2.1
The level of expressed mRNA in the presence of chemical substance/The level of expressed mRNA in the absence of chemical substance (yeast gene YNL106C): 0.9
The level of expressed mRNA in the presence of chemical substance/The level of expressed mRNA in the absence of chemical substance (yeast gene YNL169C): 0.8
level of expressed mRNA in the presence/in the absence of chemical substance (yeast gene YNL192W): 1.1
The level of expressed mRNA in the presence of chemical substance/The level of expressed mRNA in the absence of chemical substance (yeast gene YNL231C): 1.3
The level of expressed mRNA in the presence of chemical substance/The level of expressed mRNA in the absence of chemical substance (yeast gene YNL322C): 0.6
The level of expressed mRNA in the presence of chemical substance/The level of expressed mRNA in the absence of chemical substance (yeast gene YNL331C): 21.8
The level of expressed mRNA in the presence of chemical substance/The level of expressed mRNA in the absence of chemical substance (yeast gene YNL332W): 2.6
The level of expressed mRNA in the presence of chemical substance/The level of expressed mRNA in the absence of chemical substance (yeast gene YNR019W): 0.7
The level of expressed mRNA in the presence of chemical substance/The level of expressed mRNA in the absence of chemical substance (yeast gene YNR033W): 0.4
The level of expressed mRNA in the presence of chemical substance/The level of expressed mRNA in the absence of chemical substance (yeast gene YNR059W): 1.0
The level of expressed mRNA in the presence of chemical substance/The level of expressed mRNA in the absence of chemical substance (yeast gene YOL058W): 2.3
level of expressed mRNA in the presence/in the absence of chemical substance (yeast gene YOL086C): 2.6
level of expressed mRNA in the presence/in the absence of chemical substance (yeast gene YOL108C): 1.1
level of expressed mRNA in the presence/in the absence of chemical substance (yeast gene YOL116W): 1.0
The level of expressed mRNA in the presence of chemical substance/The level of expressed mRNA in the absence of chemical substance (yeast gene YOL126C): 1.8
The level of expressed mRNA in the presence of chemical substance/The level of expressed mRNA in the absence of chemical substance (yeast gene YOL153C): 2.4
level of expressed mRNA in the presence/in the absence of chemical substance (yeast gene YOL156W): 1.1
The level of expressed mRNA in the presence of chemical substance/The level of expressed mRNA in the absence of chemical substance (yeast gene YOL165C): 17.6
level of expressed mRNA in the presence/in the absence of chemical substance (yeast gene YOR002W): 1.2
level of expressed mRNA in the presence/in the absence of chemical substance (yeast gene YOR085W): 1.1
The level of expressed mRNA in the presence of chemical substance/The level of expressed mRNA in the absence of chemical substance (yeast gene YOR099W): 1.2
level of expressed mRNA in the presence/in the absence of chemical substance (yeast gene YOR103C): 1.0
level of expressed mRNA in the presence/in the absence of chemical substance (yeast gene YOR108W): 1.4
level of expressed mRNA in the presence/in the absence of chemical substance (yeast gene YOR128C): 0.8
The level of expressed mRNA in the presence of chemical substance/The level of expressed mRNA in the absence of chemical substance (yeast gene YOR130C): 0.6
level of expressed mRNA in the presence/in the absence of chemical substance (yeast gene YOR142W): 1.5
level of expressed mRNA in the presence/in the absence of chemical substance (yeast gene YOR176W): 1.4
level of expressed mRNA in the presence/in the absence of chemical substance (yeast gene YOR178C): 4.1
level of expressed mRNA in the presence/in the absence of chemical substance (yeast gene YOR251C): 1.0
The level of expressed mRNA in the presence of chemical substance/The level of expressed mRNA in the absence of chemical substance (yeast gene YOR336W): 1.4
The level of expressed mRNA in the presence of chemical substance/The level of expressed mRNA in the absence of chemical substance (yeast gene YOR347C): 1.4
level of expressed mRNA in the presence/in the absence of chemical substance (yeast gene YOR348C): 1.1
The level of expressed mRNA in the presence of chemical substance/The level of expressed mRNA in the absence of chemical substance (yeast gene YPL017C): 0.4
level of expressed mRNA in the presence/in the absence of chemical substance (yeast gene YPL028W): 1.2
level of expressed mRNA in the presence/in the absence of chemical substance (yeast gene YPL057C): 1.6
level of expressed mRNA in the presence/in the absence of chemical substance (yeast gene YPL135W): 1.3
level of expressed mRNA in the presence/in the absence of chemical substance (yeast gene YPL148C): 3.5
The level of expressed mRNA in the presence of chemical substance/The level of expressed mRNA in the absence of chemical substance (yeast gene YPR026W): 1.6
level of expressed mRNA in the presence/in the absence of chemical substance (yeast gene YPR113W): 2.0
The level of expressed mRNA in the presence of chemical substance/The level of expressed mRNA in the absence of chemical substance (yeast gene YPR160W): 4.4
level of expressed mRNA in the presence/in the absence of chemical substance (yeast gene YPR165W): 1.0
The level of expressed mRNA in the presence of chemical substance/The level of expressed mRNA in the absence of chemical substance (yeast gene YPR167C): 1.9
level of expressed mRNA in the presence/in the absence of chemical substance (yeast gene YPR183W): 2.5
The level of expressed mRNA in the presence of chemical substance/The level of expressed mRNA in the absence of chemical substance (yeast gene YPR184W): 3.6
